Data set [1] concerns CITED2 mRNA. In words: CITED2 mRNA by RT-PCR in SKOV-3 cells. As to conditions: SKOV-3, 3 days following siRNA transfection. Type of data set: cell-based, human. Here is the method:
Total RNA was isolated from cells using Trizol reagent (Invitrogen), and concentration was determined by absorbance at 260 nm. Real-Time PCR analysis was carried out using fluorescent TSG101 primers on an Applied Biosystems Prism 7000 Sequence Detection System. RT-PCR was carried out for TSG101 and HIF-1α using 1 μg of isolated total RNA under the following parameters: 94° C. 1 min, 57° C. 1 min and 72° C. 1.5 min, 35 cycles. Primers used for RT-PCR were TSG10 forward 5′-[…]-3′ (SEQ ID NO: 1), reverse 5′-TTTCCTCC TTCATCCGCCATCTC-3′ (SEQ ID NO: 2), CITED2 forward 5′-[…]-3′ (SEQ ID NO: 3), reverse 5′-[…]-3′ (SEQ ID NO: 4), HIF-1a ? forward 5′-[…]-3′ (SEQ ID NO: 5), reverse 5′-[…]-3′ (SEQ ID NO: 6).
A siRNA duplex specific for TSG101 (targeting TSG101 coding sequence 413-433) and a scrambled random control siRNA with matching GC content were obtained from Dharmacon. This specific TSG101 siRNA duplex (sense: CCUCCAGUCUUCUCUCGUCdTdT (SEQ ID NO: 7) and antisense: dTd[…] (SEQ ID NO: 8) have been successfully applied to suppress the expression of endogenous TSG101 in several high quality studies (Amit et al., 2004; Garrus et al., 2001; Hewitt et al., 2002; Ismaili et al., 2005). Transfection of the siRNAs was according to the manufacturer's instructions using Lipofectamine 2000 (Invitrogen).

Data set [2] deals with HIF-1α transcriptional activity. Description: HIF-1α GFP reporter assay (HRE-GFP) in SKOV-3 cells. It is filed as cell-based, human. Here is the method:
Cells were plated at 1×10^5 in 3.5 cm wells and grown overnight at 37° C. The following day cells were transfected with 375 ng/well of either TSG101 or control siRNA duplex using Lipofectamine 2000. Cells were then passaged at 48 hrs post-transfection and used for subsequent experiments. The HIF-1α response element (HRE)-GFP reporter (a generous gift from Mark Dewhirst) was transfected into cells 48 hrs after transfection with siRNA reagents, and subsequently plated onto microscope cover slips. On the fifth day following siRNA transfection, cells on cover slips were rinsed in PBS and fixed in 2% paraformaldehyde for 15 min. Nuclear staining was carried out with DAPI (5 ng/ml) for 5 min, after which slides were mounted and observed using a fluorescence microscope (Olympus BX51) equipped with a Hamamatsu digital camera (C4742-95).
To test the functional consequence of TSG101 knock-down mediated down-regulation of CITED2/HIF-1 ? HIF-1 ? transcriptional activity was examined using a HIF-1-inducible fluorescent reporter. This construct was created by splicing five copies of the hypoxia regulatory element (HRE) upstream of enhanced green fluorescent protein (GFP), which provided a convenient method for monitoring HIF-1 activity levels by following GFP expression using fluorescence microscopy (Moeller et al., 2004).
For orientation: Reporter assays use an easily measured gene product as a stand-in for the process of interest.

On to “TSG101 siRNA: siRNA duplex from Dharmacon targeting TSG101 coding sequence 413-433, SEQ ID NO: 7 and 8 (chain 1 CCUCCAGUCUUCUCUCGUCTT; chain 2 TTGGAGGUCAGAAGAGAGCAG; chemistry not fully specified; one strand is listed 3' to 5')”, for which, in data set [1], the “CITED2 mRNA expression” value is recorded as “significantly down-regulated”. For the same substance, the “fluorescent signal from GFP expression (HRE-GFP)” value in data set [2] (SKOV-3, fluorescence microscopy, 4 days post-transfection as printed) is recorded as “significantly decreased”. Moreover, in data set [2] (SKOV-3, immunoblotting), the “GFP protein expression (HRE-GFP)” value is “significantly decreased expression of GFP”.
